Data: patent publication US20060128792A1, “Deguelin as a chemopreventive agent for lung cancer” (priority 2002, published 2006)
Several values for one entry are separate records, joined by “and”; a condition that tells them apart may be missing. Equal values may be shown once.

Columns and labels:
Format in all cases: cell-based
A549 = assay: MTT assay, growth inhibition by deguelin or deguelin derivatives; conditions: 3 days
H1299 = assay: as above; conditions: 3 days
H322 = assay: as above; conditions: 3 days
H596 = assay: as above; conditions: 3 days
H460 = assay: as above; conditions: 3 days
H358 = assay: as above; conditions: 3 days
NSCLC cells = assay: MTT assay, growth inhibition of NSCLC cells by deguelin and deguelin derivatives (Table 2, FIG. 7); conditions: 0.01-1 μM, 3 days

Substance: methoxyrot-2′-enoic acid
- MTT assay reading, Average (A549; A549, 0.01 μM): 0.2983
- MTT assay reading, individual replicate (A549; A549, 0.01 μM): 0.286 and 0.219 and 0.272 and 0.298 and 0.36 and 0.344 and 0.309
- MTT assay reading, Average (A549; A549, 0.1 μM): 0.6833
- MTT assay reading, individual replicate (A549; A549, 0.1 μM): 0.693 and 0.467 and 0.636 and 0.687 and 0.753 and 0.796 and 0.751
- MTT assay reading, Average (A549; A549, 0.5 μM): 0.5794
- MTT assay reading, individual replicate (A549; A549, 0.5 μM): 0.542 and 0.837 and 0.514 and 0.534 and 0.588 and 0.579 and 0.462
- MTT assay reading, Average (A549; A549, 1 μM): 0.6031
- MTT assay reading, individual replicate (A549; A549, 1 μM): 0.783 and 0.583 and 0.67 and 0.758 and 0.515 and 0.477 and 0.436
- % control (H1299; H1299, 0.01 μM): 0.48%
- MTT assay reading, Average (H1299; H1299, 0.01 μM): 0.7507
- MTT assay reading, individual replicate (H1299; H1299, 0.01 μM): 0.707 and 0.725 and 0.796 and 0.793 and 0.86 and 0.656 and 0.718
- % control (H1299; H1299, 0.1 μM): 0.29%
- MTT assay reading, Average (H1299; H1299, 0.1 μM): 0.4579
- MTT assay reading, individual replicate (H1299; H1299, 0.1 μM): 0.401 and 0.474 and 0.434 and 0.387 and 0.526 and 0.465 and 0.518
- % control (H1299; H1299, 0.5 μM): 0.25%
- MTT assay reading, Average (H1299; H1299, 0.5 μM): 0.3934
- MTT assay reading, individual replicate (H1299; H1299, 0.5 μM): 0.425 and 0.405 and 0.342 and 0.497 and 0.278 and 0.503 and 0.304
- % control (H1299; H1299, 1 μM): 0.22%
- MTT assay reading, Average (H1299; H1299, 1 μM): 0.3396
- MTT assay reading, individual replicate (H1299; H1299, 1 μM): 0.29 and 0.384 and 0.395 and 0.301 and 0.289 and 0.346 and 0.372
- % control (H322; H322, 0.01 μM): 97%
- MTT assay reading, Average (H322; H322, 0.01 μM): 0.8434
- MTT assay reading, individual replicate (H322; H322, 0.01 μM): 0.729 and 0.806 and 0.748 and 0.791 and 0.898 and 1.011 and 0.921
- % control (H322; H322, 0.1 μM): 55%
- MTT assay reading, Average (H322; H322, 0.1 μM): 0.4803
- MTT assay reading, individual replicate (H322; H322, 0.1 μM): 0.322 and 0.412 and 0.406 and 0.52 and 0.585 and 0.58 and 0.537
- % control (H322; H322, 0.5 μM): 43%
- MTT assay reading, Average (H322; H322, 0.5 μM): 0.3787
- MTT assay reading, individual replicate (H322; H322, 0.5 μM): 0.32 and 0.314 and 0.388 and 0.393 and 0.466 and 0.443 and 0.327
- % control (H322; H322, 1 μM): 40%
- MTT assay reading, Average (H322; H322, 1 μM): 0.3461
- MTT assay reading, individual replicate (H322; H322, 1 μM): 0.271 and 0.348 and 0.409 and 0.352 and 0.361 and 0.324 and 0.358
- % control (H596; H596, 0.01 μM): 6%
- MTT assay reading, Average (H596; H596, 0.01 μM): 0.0931
- MTT assay reading, individual replicate (H596; H596, 0.01 μM): 0.037 and 0.055 and 0.067 and 0.122 and 0.101 and 0.118
- % control (H596; H596, 0.1 μM): 20%
- MTT assay reading, Average (H596; H596, 0.1 μM): 0.3181
- MTT assay reading, individual replicate (H596; H596, 0.1 μM): 0.287 and 0.3 and 0.326 and 0.366 and 0.289 and 0.321 and 0.338
- % control (H596; H596, 0.5 μM): 23%
- MTT assay reading, Average (H596; H596, 0.5 μM): 0.3653
- MTT assay reading, individual replicate (H596; H596, 0.5 μM): 0.28 and 0.434 and 0.344 and 0.446 and 0.348 and 0.383 and 0.322
- % control (H596; H596, 1 μM): 26%
- MTT assay reading, Average (H596; H596, 1 μM): 0.405
- MTT assay reading, individual replicate (H596; H596, 1 μM): 0.422 and 0.37 and 0.481 and 0.573 and 0.319 and 0.328 and 0.342
- % control (H460; H460, 0.01 μM): 0.11%
- MTT assay reading, Average (H460; H460, 0.01 μM): 0.1897
- MTT assay reading, individual replicate (H460; H460, 0.01 μM): 0.037 and 0.62 and 0.096 and 0.098 and 0.122 and 0.16 and 0.195
- % control (H460; H460, 0.1 μM): 0.08%
- MTT assay reading, Average (H460; H460, 0.1 μM): 0.1399
- MTT assay reading, individual replicate (H460; H460, 0.1 μM): 0.139 and 0.105 and 0.129 and 0.16 and 0.133 and 0.147 and 0.166
- % control (H460; H460, 0.5 μM): 0.16%
- MTT assay reading, Average (H460; H460, 0.5 μM): 0.2786
- MTT assay reading, individual replicate (H460; H460, 0.5 μM): 0.297 and 0.26 and 0.302 and 0.283 and 0.291 and 0.282 and 0.235
- % control (H460; H460, 1 μM): 0.17%
- MTT assay reading, Average (H460; H460, 1 μM): 0.2933
- MTT assay reading, individual replicate (H460; H460, 1 μM): 0.276 and 0.322 and 0.282 and 0.298 and 0.311 and 0.29 and 0.274
- % control (H358; H358, 0.01 μM): 69%
- MTT assay reading, Average (H358; H358, 0.01 μM): 0.5804
- MTT assay reading, individual replicate (H358; H358, 0.01 μM): 0.414 and 0.525 and 0.579 and 0.603 and 0.68 and 0.612 and 0.65
- % control (H358; H358, 0.1 μM): 29%
- MTT assay reading, Average (H358; H358, 0.1 μM): 0.2433
- MTT assay reading, individual replicate (H358; H358, 0.1 μM): 0.196 and 0.173 and 0.287 and 0.284 and 0.293 and 0.247 and 0.223
- % control (H358; H358, 0.5 μM): 34%
- MTT assay reading, Average (H358; H358, 0.5 μM): 0.2884
- MTT assay reading, individual replicate (H358; H358, 0.5 μM): 0.212 and 0.331 and 0.284 and 0.282 and 0.478 and 0.2 and 0.232
- % control (H358; H358, 1 μM): 36%
- MTT assay reading, Average (H358; H358, 1 μM): 0.3047
- MTT assay reading, individual replicate (H358; H358, 1 μM): 0.283 and 0.248 (2×) and 0.306 and 0.3 and 0.343 and 0.405
- inhibiting cell growth in NSCLC cells, ranking among the derivatives (NSCLC cells): most effective
